Read-outs that look alike come from different tables or passages of the source. Marks after values point to notes of the source that are not given here.

From patent publication US8673914B2, “Use of phosphodiesterase inhibitors for treating multidrug resistance” (St. John's University, priority 2011, dated 2014) come the findings set out here.

Data set [1] relates to HEK/ABCG2-T7. In words: MTT cytotoxicity/reversal assay (Example 2). To be noted: HEK/ABCG2-T7, alone. The method, then: (§1) The ABCB1-overexpressing drug resistant cell line KB-V1 (generously provided by Dr. Gottesman, NCI, NIH) was established by a stepwise concentration increase of vinblastine in the culture medium of KB-3-1 cells and subsequently culturing these cells in medium with 1 μg/mL of vinblastine. An ABCC1-overexpressing MDR cell line, KB-CV60, was also derived from KB-3-1 cells and was maintained in medium with 1 μg/mL of cepharanthine and 60 ng/mL of vincristine. Both KB-C2 and KB-CV60 cell lines were kindly provided by Dr. Akiyama (Kagoshima University, Japan). HEK293/pcDNA3.1, ABCG2-482-R5, ABCG2-482-G2, and ABCG2-482-T7 cells were established by selection with 2 mg/mL G418 after transfecting HEK293 with either (1) empty pcDNA3.1 vector or (2) pcDNA3.1 vector containing full length ABCG2 coding either (2a) wild-type arginine (R) or mutant (2b) glycine (G) or (2c) threonine (T) at amino acid position 482, respectively. The wild-type ABCG2-overexpressing drug-resistant cell line MCF-7/Flv1000 was cultured in the medium with 1 μM of flavopiridol. […] Another G482 mutant ABCG2-overexpressing drug resistant cell line, S1-M1-80, was maintained in the medium with 80 μM of mitoxantrone. […] All the cell lines were grown as adherent monolayers in flasks with DMEM (Dulbecco's modified Eagle's medium) culture medium (Hyclone Co.) containing 10% bovine serum at 37° C. in a humidified atmosphere of 5% CO2.
(§2) Cells in 96-well plates were preincubated with or without the reversal agents for 1 h and then different concentrations of chemotherapeutic drugs were added into designated wells. After 68 h of incubation, MTT solution (4 mg/mL) was added to each well, and the plate was further incubated for 4 h, allowing viable cells to change the yellow-colored MTT into dark-blue formazan crystals. Subsequently the medium was discarded, and […] of DMSO was added into each well to dissolve the formazan crystals. The absorbance was determined at 570 nm by an OPSYS MR Microplate Reader from DYNEX Technologies, Inc.

In data set [2] the test system is HEK/ABCG2-R5. In words: MTT cytotoxicity/reversal assay (Example 2). The note with it: HEK/ABCG2-R5, alone. On the procedure: as §1, §2
The test system of data set [3] is HEK/ABCG2-G2. In words: MTT cytotoxicity/reversal assay (Example 2). The note with it: HEK/ABCG2-G2, alone. On the procedure: as §1, §2
Data set [4] relates to S1/FLV5000. In words: cells. The class given is cell-based. The method, then: as §1, §2
Data set [5] deals with S1. In words: MTT cytotoxicity/reversal assay (Example 2). The class given is cell-based. The note with it: alone. The method, then: as §1, §2
Data set [6] relates to S1-M1-80. In words: MTT cytotoxicity/reversal assay (Example 2). The class given is cell-based. To be noted: alone. On the procedure:
as §1, §2

Data set [7] has as its system MCF-7. In words: MTT cytotoxicity/reversal assay (Example 2). The class given is cell-based. The method, then:
as §1, §2

Data set [8] relates to MCF-7/Flv1000. In words: MTT cytotoxicity/reversal assay (Example 2). The class given is cell-based. The note with it: MCF-7/Flv1000, alone. The method, then: as §1, §2
Data set [9] has as its system MCF7/ADVP3000. In words: MTT cytotoxicity/reversal assay (Example 2). The class given is cell-based. The note with it: alone. The method, then:
as §1, §2

Data set [10] relates to HEK293/pcDNA3. In words: MTT cytotoxicity/reversal assay (Example 2). The note with it: alone. The class given is cell-based. On the procedure:
as §1, §2

The test system of data set [11] is HEK/MRP1 (ABCC1). The experiment in a line: MTT cytotoxicity/reversal assay (Example 1). The class given is cell-based. To be noted: +10 μM reversal agent. On the procedure:
The KB-C2 and KB-3-1 were kindly provided by Dr. Akiyama (Kagoshima University, Japan). […] Similarly, the HEK/MRP1 (ABCC1) and HEK/ABCB1 cells were generated by transfecting the HEK293 cells with either the MRP1 expression vector or the ABCB1 expression vector. All of the cell lines were grown in Dulbecco's modified Eagle's medium (DMEM) supplemented with 10% bovine serum, 100 units/ml penicillin, and […] streptomycin in a humidified incubator containing 5% CO2 at 37° C.
(§3) The MTT assay was used to assess cytotoxicity. The cultured cells were harvested with trypsin and resuspended in a final concentration of 4×10^3 cells/well for KB-3-1; 7.5×10^3 cells/well for KB-C2; and 8×10^3 for all of the other cell lines used in this study. Cells were seeded evenly in 96-well multiplates. […] After 68 h of incubation, 20 μl of the MTT solution (4 mg/ml) was added to each well, and the plate was further incubated for 4 h at 37° C., allowing viable cells to convert the yellow-colored MTT into dark-blue formazan crystals. Subsequently, the medium was discarded, and 100 μl of DMSO was added into each well to dissolve the formazan crystals, generating purple color. The absorbance was determined at 570 nm by an OPSYS Microplate Reader from DYNEX Technologies, Inc. (Chantilly, Va.). […] The degree of the reversal of multidrug resistance (MDR) was calculated by dividing the IC50 of an anticancer drug, e.g., an antineoplastic or chemotherapeutic drug (agent, compound), in a cell type in the absence of a reversal agent by the IC50 of the anticancer drug in the same cell type in the presence of the reversal agent. The IC50 values were calculated from survival curves using the Bliss method.

Data set [12] has as its system HEK293/pcDNA3.1. In words: MTT cytotoxicity/reversal assay (Example 1). The class given is cell-based. On the procedure: (§4) The KB-C2 and KB-3-1 were kindly provided by Dr. Akiyama (Kagoshima University, Japan). HEK293-pcDNA3.1 and wild-type HEK/ABCG2 transfected cells were established by selection with G418 after transfecting HEK293 with either (1) empty pcDNA3.1 vector or (2) pcDNA3.1 vector containing full length of ABCG2 coding arginine (R) at amino acid position 482, and were then cultured in a medium with 2 mg/ml of G418 (ABCG2-482-R2 cells). Similarly, the HEK/MRP1 (ABCC1) and HEK/ABCB1 cells were generated by transfecting the HEK293 cells with either the MRP1 expression vector or the ABCB1 expression vector. All of the cell lines were grown in Dulbecco's modified Eagle's medium (DMEM) supplemented with 10% bovine serum, 100 units/ml penicillin, and […] streptomycin in a humidified incubator containing 5% CO2 at 37° C.
as §3

Data set [13] concerns ABCG2-482-R2 (ABCG2). The experiment in a line: MTT cytotoxicity/reversal assay (Example 1). On the procedure:
as §4, §3

[14] abbreviates: Homo sapiens, read-out: IC50 of mitoxantrone.

On to `O=C1c2c(O)ccc(O)c2C(=O)c2c(NCCNCCO)ccc(NCCNCCO)c21` [Mitoxantrone, mitoxantrone], for which the “fold-resistance, mitoxantrone” value is recorded as “(23.7)” in data set [1]; “(12.8)” in data set [2]; “(31.0)” in [3]; “(3.0)” in data set [4]; “(1.0)^c” in data set [5]; “(559.3)” in data set [6]. Also, the “fold-resistance, mitoxantrone” value is given as “(1.0)^c” in data set [7] (alone), “(66.7)” in data set [8], “(36.4)” in data set [9] and “(1.0)^c” in data set [10]. Moreover, the IC50 amounted to 1.12 ± 0.144 µM in data set [4] (S1/FLV5000, alone, read-out: IC50 of mitoxantrone); 0.38 ± 0.0416 µM in [5] (read-out: IC50 of mitoxantrone); 224 ± 8.6 µM in data set [6] (setting [14]); 7.66 ± 0.193 µM in data set [7] (Homo sapiens, MCF7, alone, read-out: IC50 of mitoxantrone); 511 ± 16.7 µM in data set [8] (read-out: IC50 of mitoxantrone); 279 ± 6.03 µM in data set [9] (setting [14]). The IC50 in data set [10] (setting [14]) came to 0.0356 ± 0.003 µM.
Consider `O=C(Nc1cccc2c(=O)cc(-c3nn[nH]n3)oc12)c1ccc(OCCCCc2ccccc2)cc1` [ONO-1078], for which the “fold reversal, vincristine” value in [11] is listed as “(5.9)”; in [12] (HEK293/pcDNA3.1 (Table 6), +10 μM reversal agent) it was “(1.33)”.
For `CCc1c2c(nc3ccc(O)cc13)-c1cc3c(c(=O)n1C2)COC(=O)[C@]3(O)CC` [SN-38, 7-ethyl-10-hydroxy-20(S)-camptothecin], the “fold-resistance, SN-38” value in [1] is reported as “(20.2)”; in [2], “(22.1)”; in [3], “(2.3)”; in data set [4] (S1/FLV5000, alone), “(1.4)”; in data set [5], “(1.0)^c”; in data set [6] it was “(14.4)”. Besides, the “fold-resistance, SN-38” value is “(1.0)^c” in data set [7] (alone), “(18.7)” in data set [8], “(11.3)” in data set [9] and “(1.0)^c” in data set [10]. Also, the IC50 in data set [1] (read-out: IC50 of SN-38) came out at 0.117 ± 0.0704 µM; in data set [2] (read-out: IC50 of SN-38), 0.128 ± 0.0882 µM; in data set [3] (read-out: IC50 of SN-38) it was 0.204 ± 0.136 µM; in [12] (HEK293/pcDNA3.1, alone, read-out: IC50 of SN-38), 0.116 ± 0.0151 µM; in data set [13] (read-out: IC50 of SN-38, alone), 3.65 ± 0.547 µM; in [4] (S1/FLV5000, alone, read-out: IC50 of SN-38), 0.344 ± 0.0874 µM. The IC50 was 0.245 ± 0.017 µM in data set [5] (read-out: IC50 of SN-38); 3.55 ± 1.4 µM in data set [6] (read-out: IC50 of SN-38); 1.22 ± 0.263 µM in data set [7] (alone, read-out: IC50 of SN-38); 22.8 ± 2 µM in data set [8] (read-out: IC50 of SN-38); 14.3 ± 1.62 µM in [9] (read-out: IC50 of SN-38); 0.0058 ± 0.0002 µM in data set [10] (read-out: IC50 of SN-38). In addition, the “fold reversal, SN-38” value in [12] (HEK293/pcDNA3.1, alone) is “(1.00)”; in data set [13] (alone), “(1.00)”.

In general, IC50 refers to the concentration that gives 50% inhibition.
